{"source": "patent US20100152249A1", "about": "“COMPOSITONS AND METHOD FOR TREATMENT OF MOOD AND COGNITIVE IMPAIRMENTS” (BOARD OF TRUSTEES OF THE LELAND STANFORD JUNIOR UNIVERSITY, priority 2008, published 2010)", "system": "patients with depressive disorder", "test": "Open-label rosiglitazone added to treatment as usual for 12 weeks in patients with depressive disorder and surrogate IR blood markers", "assay_type": "in vivo, human", "method": "Open-label PPAR agonist, rosiglitazone, titrated to a dose of 8 mg/day, was administered for 12 weeks to patients with depressive disorder receiving treatment as usual (TAU). Subjects were evaluated and surrogate IR blood markers were chosen based on fasting plasma glucose >100 mg/dL or triglyceride (TG) to high density lipoprotein (HDL) ratio of about 3.0 or greater.\nPsychiatric Response to Treatment. […] Cohen's d for pre- to post-treatment HDRS-21 was 1.17, with an effect size of r=0.504. For CGI-S scores, Cohen's d and effect size r for CGI-S were 1.27 and 0.54, respectively. […] Even considering the very small sample size, the trajectory of decline in HDRS and CGI was linear.", "key": {"[1]": {"conditions": "8 mg/day, 12 weeks, 8 completers"}}, "data": [{"smiles": "CN(CCOc1ccc(CC2SC(=O)NC2=O)cc1)c1ccccn1", "note": "(stereo not drawn) [rosiglitazone, 5-[4-[2-(N-methyl-N-(2-pyridyl)amino)ethoxy]benzyl]thiazolidine-2,4-dione]", "values": [{"measurement": "CGI-S post-treatment mean", "setting": "8 mg/day, 12 weeks, add-on to TAU, 8 completers, baseline mean 4.0, p=0.043", "result": 2.9}, {"measurement": "HDRS-21 post-treatment mean", "setting": "8 mg/day, 12 weeks, add-on to TAU, 8 completers, baseline mean 19.9, repeated measures ANOVA p=0.019", "result": 12.1}, {"measurement": "Cohen's d for CGI-S", "setting": "[1]", "result": 1.27}, {"measurement": "Cohen's d for pre- to post-treatment HDRS-21", "setting": "[1]", "result": 1.17}, {"measurement": "effect size r for CGI-S", "setting": "[1]", "result": 0.54}, {"measurement": "effect size r for pre- to post-treatment HDRS-21", "setting": "[1]", "result": 0.504}, {"measurement": "patients showing ≧50% HDRS-21 score reduction", "setting": "[1]", "result": "4 of the 8"}, {"measurement": "mean reduction in HDRS-21 scores", "setting": "8 mg/day, 12 weeks, 8 completers, versus baseline", "result": 39.3, "unit": "%"}, {"measurement": "depression severity by Hamilton Depression Rating Scale and clinical assessment (CGI) scores", "setting": "8 patients who completed the 12 week study, moderate effect sizes", "result": "significant declines"}]}]}
